Columns and labels:
NCI-H522 = assay: Anchorage-independent colony-forming assay; assay type: cell-based, human; details: for % Inhibition: colonies Day 14
Protocol: (§1) Testing was conducted employing standard tissue culture techniques and an anchorage-independent colony-forming assay.
(§2) MT103 was tested against the lung carcinoma cell lines NCI-H226, NCI-H522, and HOP-92. An anchorage-independent colony-forming assay was employed. For the experiment, the cells were harvested, centrifuged to remove the media, and suspended in Iscove's Modified Dulbecco's Medium (IMDM). Samples were taken to determine cell density. The cell count was determined with a Coulter Model Z1 cell counter and viability was measured with propidium iodide staining followed by analysis on a Coulter EPICS XL flow cytometer. Each cell line was plated at 1×10^5 cells per dish (35 mm) in IMDM with 20% FBS and 1% methylcellulose containing the appropriate concentration of test compound or DMSO control. Five concentrations of each compound and a DMSO control were tested in each of the three cell lines. The colonies per plate were counted on Day 14 after the initiation of treatment. The cell lines were propagated under sterile conditions and incubated at 37° C. in HEPA-filtered CO2 tissue culture incubators with 5% CO2 and 95% humidity. The cell line was subcultured weekly to bi-weekly and used in experiments. The test compounds were kept refrigerated under light protected conditions until dissolved in DMSO.
(§3) Anticellular effects of the compounds on the tumor line were assessed with a colony-forming assay. Briefly, cell were harvested and adjusted to 3×10^6 viable cells/mL in IMDM. Compounds (200×) were prepared in DMSO and serially diluted in DMSO to give appropriate testing concentrations. Cells (100 μL), compound or DMSO control (16.5 μL) and IMDM (183.5 μL) were added to the appropriate assay tubes (12×75 mm) containing 3 mL of complete media, IMDM with 20% FBS and 1% methylcellulose. Tubes were then vortexed and 1.1 mL of the cell suspension was added to each of two 35 mm dishes. These dishes were then incubated for 14 days in HEPA-filtered CO2 tissue culture incubators with 5% CO2 and 95% humidity. The colonies in each dish were then counted and the duplicates were averaged and reported

NCI-H226 = assay: Anchorage-independent colony-forming assay; assay type: cell-based, human; details: for % Inhibition: colonies Day 14
Protocol: as §1, §2, §3

HOP-92 = assay: Anchorage-independent colony-forming assay; assay type: cell-based, human; details: for % Inhibition: colonies Day 14
Protocol: as §1, §2, §3

H226 cell cancer tumors = assay: Induced-tumor NOD/SCID mouse model (Example 7); assay type: in vivo, NOD/SCID mice; details: 30 mg/kg intraperitoneal every other day for two weeks
Protocol: A standard induced-tumor NOD/SCID mouse model was used to perform this investigation, with the mouse model being based on protocols for human xenograft systems developed at the National Cancer Institute. H226 cell cancer tumors were induced in NOD/SCID mice; tumors at sizes approximately 100 mm^3 were treated with 30 mg/kg MT103 or a control containing only vehicle (2.5% DMSO in distilled water) administered in intraperitoneal injections every other day for two weeks.

MCF7, NCI-H460, SF-268 = assay: NCI three cell-line test, all three cell lines; assay type: cell-based, human; details: one concentration tested (1×10^−4 Molar)
Protocol: The testing in this Example was performed by NCI, as per their 3-cell line panel test. The results are reported as the percent of the growth of the treated cells compared to the untreated control cells. The criterion for being an effective compound and for being subjected to further testing is that the tested compound reduce the growth of any one of the three cell lines to approximately 32% or less.
The methods for conducting the test are described below in Example 3, except that the cells were exposed to a single concentration of MT103, at 1×10^−4 Molar, and colorimetric determinations were made with alamar blue (Biotechniques 21(5):780-782 (1996)).
Methodology: The NCI conducted a test of the MT103 drug against 60 human cell lines, with a minimum of five concentrations of MT103 at 10-fold dilutions. […]
Following drug addition, the plates were incubated for an additional 48 h at 37° C., 5% CO2, 95% air, and 100% relative humidity. […] Bound stain was subsequently solubilized with 10 mM trizma base, and the absorbance was read on an automated plate reader at a wavelength of 515 nm. […] Using the seven absorbance measurements (time zero, (Tz), control growth, (C), and test growth in the presence of drug at the five concentration levels (Ti)), the percentage growth was calculated at each of the drug concentrations levels. Percentage growth inhibition was calculated as: […]

**Q.** `CC1(C)C2CC[C@@]1(CS(=O)(=O)N(C1CCCCC1)C1CCCCC1)C(O)C2` (some centres unmarked) [MT103] was tested. Which IC50 (NCI-H522; NCI-H522, colony-forming assay) did it give?
**A.** Its IC50 is 81.7 µM.

**Q.** What about the “% Inhibition” value (NCI-H522; NCI-H522, 0.8 μM) of the same molecule?
**A.** The value was 0%.

**Q.** And the “% Inhibition” value (NCI-H522; NCI-H522, 4 μM)?
**A.** The value was 0%.

**Q.** And the “% Inhibition” value (NCI-H522; NCI-H522, 20 μM)?
**A.** The value was 0%.

**Q.** And the “% Inhibition” value (NCI-H522; NCI-H522, 100 μM)?
**A.** The value was 57.2%.

**Q.** What about the “% Inhibition” value (NCI-H522; NCI-H522, 500 μM) of the same molecule?
**A.** The value was 100%.

**Q.** What about the “−logGI50 value” (NCI-H522; NCI-H522, see Table 5) of the same molecule?
**A.** The value was 4.1.

**Q.** And the IC50 (NCI-H226; NCI-H226, colony-forming assay)?
**A.** The IC50 was 8.39 µM.

**Q.** What about the “% Inhibition” value (NCI-H226; NCI-H226, 0.8 μM) of the same molecule?
**A.** Its value is 3.1%.

**Q.** And the “% Inhibition” value (NCI-H226; NCI-H226, 4 μM)?
**A.** Its value is 36.7%.

**Q.** What about the “% Inhibition” value (NCI-H226; NCI-H226, 20 μM) of the same molecule?
**A.** The value was 65.6%.

**Q.** What about the “% Inhibition” value (NCI-H226; NCI-H226, 100 μM) of the same molecule?
**A.** The value was 92.2%.

**Q.** What about the “% Inhibition” value (NCI-H226; NCI-H226, 500 μM) of the same molecule?
**A.** The value was 99.7%.

**Q.** And the “−logGI50 value” (NCI-H226; NCI-H226, see Table 5)?
**A.** The value was 5.1.

**Q.** And the IC50 (HOP-92; HOP-92, colony-forming assay)?
**A.** The IC50 was 24.2 µM.

**Q.** What about the “% Inhibition” value (HOP-92; HOP-92, 0.8 μM) of the same molecule?
**A.** The value was 0%.

**Q.** And the “% Inhibition” value (HOP-92; HOP-92, 4 μM)?
**A.** Its value is 0%.

**Q.** And the “% Inhibition” value (HOP-92; HOP-92, 20 μM)?
**A.** The value was 43.3%.

**Q.** And the “% Inhibition” value (HOP-92; HOP-92, 100 μM)?
**A.** The value was 100%.

**Q.** What about the “% Inhibition” value (HOP-92; HOP-92, 500 μM) of the same molecule?
**A.** Its value is 100%.

**Q.** What about the “−logGI50 value” (HOP-92; HOP-92, see Table 5) of the same molecule?
**A.** The value was 4.6.

**Q.** And the toxicity (H226 cell cancer tumors)?
**A.** Its toxicity is “without any evidence of toxicity”.

**Q.** What about the tumor volume (H226 cell cancer tumors; FIG. 3) of the same molecule?
**A.** The tumor volume was “tumor volume was significantly decreased”.

**Q.** And the mice body weight (H226 cell cancer tumors; FIG. 4)?
**A.** Its mice body weight is “did not have deleterious effect on mice body weight”.

**Q.** And the H226 tumor progression (H226 cell cancer tumors; p=0.038)?
**A.** The H226 tumor progression was “slowed down H226 tumor progression significantly”.

**Q.** What about the “growth of all three cell lines” value (MCF7, NCI-H460, SF-268) of the same molecule?
**A.** Its value is at most 16%.

— patent publication US20040266732A1, “Therapeutic agents, methods, and treatments” (priority 2002, published 2004)
